One assay deals with T1, human EP1 receptor (Homo sapiens, UniProt P34995).
T1 sequence (P34995 1-402): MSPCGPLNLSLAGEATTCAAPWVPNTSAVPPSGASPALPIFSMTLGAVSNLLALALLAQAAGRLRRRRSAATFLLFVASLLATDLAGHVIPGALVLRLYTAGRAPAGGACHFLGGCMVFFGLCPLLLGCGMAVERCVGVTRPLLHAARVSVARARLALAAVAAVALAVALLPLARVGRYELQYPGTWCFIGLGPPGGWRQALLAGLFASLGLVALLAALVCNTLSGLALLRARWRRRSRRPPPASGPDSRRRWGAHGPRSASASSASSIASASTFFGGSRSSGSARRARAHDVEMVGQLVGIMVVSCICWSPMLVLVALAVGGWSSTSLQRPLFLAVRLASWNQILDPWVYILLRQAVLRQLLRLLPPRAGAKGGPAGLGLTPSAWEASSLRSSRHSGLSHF
The assay is described as follows: Test 2: Measurement of IP1 responses by HTRF, suspended HEK-293 cells stably expressing human EP1 receptors, PGE2 30 nM. It is filed as cell-based. Further details: expressed in transfected cells. Conditions: HEK293, at 10 μM, read-out: Results of Test 2 (Functional assay), % inh. The protocol: Test 2: Measurement of IP1 responses by Homogeneous Time Resolved Fluorescence
IP1 measurements on HEK-293 cells that stably expressed human EP1 receptors were performed by using a system based on Homogeneous Time Resolved Fluorescense (HTRF) (Gabriel et al., 2003). This technology allows the direct measurement of IP1 in living cells. The principle of this assay is based on competition between IP1 produced by cells and IP1-d2 conjugate for the binding with monoclonal anti-IP1-cryptate conjugate. The HTRF IP1 kit from CisBio was used according to the manufacturer's directions. The experimental procedure was performed as stated below.
Suspended cells (30,000 cells per well) were added to 96-well culture plates in 40 μl of stimulation buffer (supplied by the kit). Compounds were then added in 20 μl of stimulation buffer and incubated at 37° C. for 15 minutes followed by 10 μl of PGE2 to a final concentration of […]. After 90 minutes at 37° C., the reaction was stopped lysing the cells with a mixture of 15 μl of cryptate and 15 μl of IP1-d2 prepared in the lysis buffer supplied by the manufacturer. Plates were incubated for an additional hour at room temperature and read at 665 nm/620 nm using an UltraEvolution Plate reader (Tecan).
Antagonist percentage inhibition was calculated relating compounds activity to the 0% inhibition of the wells incubated with 10 nM PGE2 alone and 100% inhibition of the wells incubated with 10 nM PGE2 plus 1 μM of the reference antagonist.
On the technique in general: Time-resolved FRET reads energy transfer from a long-lived donor to a nearby acceptor.
For `O=C(O)c1cccc2c1ccn2Cc1cc(Br)ccc1OCc1ccccc1` [Example 2, 1-(2-(benzyloxy)-5-bromobenzyl)-1H-indole-4-carboxylic acid], the inhibition at 10 µM was greater than 75%.

In the case of `O=C(O)c1cccc2c1ccn2Cc1cc(C(F)(F)F)ccc1OCc1ccccc1` [Example 3, 1-(2-(benzyloxy)-5-(trifluoromethyl)benzyl)-1H-indole-4-carboxylic acid], the inhibition at 10 µM was greater than 75%. Still for that read-out and setting: for `O=C(O)c1cccc2c1ccn2Cc1cc(Br)ccc1OCc1ccc(F)cc1` [Example 4, 1-(5-bromo-2-((4-fluorobenzyl)oxy)benzyl)-1H-indole-4-carboxylic acid] the value was greater than 75%. The same measure, in the same setting: in the case of `O=C(O)c1cccc2c1ccn2Cc1cc(Cl)ccc1OCc1ccc(F)cc1` [Example 5, 1-(5-chloro-2-((4-fluorobenzyl)oxy)benzyl)-1H-indole-4-carboxylic acid] it was greater than 75%; in that of `O=C(O)c1cccc2c1ccn2Cc1cc(C(F)(F)F)ccc1OCc1ccc(Cl)cc1F` [Example 6, 1-(2-((4-chloro-2-fluorobenzyl)oxy)-5-(trifluoromethyl)benzyl)-1H-indole-4-carboxylic acid], greater than 75%. On the same count and under the same terms, in the case of `O=C(O)c1cccc2c1ccn2Cc1cc(Cl)ccc1OCC1CC1` [Example 7, 1-(5-chloro-2-(cyclopropylmethoxy)benzyl)-1H-indole-4-carboxylic acid] it was greater than 75%; in that of `O=C(O)c1cccc2c1ccn2Cc1cc(Br)ccc1OCC1CC1` [Example 8, 1-(5-bromo-2-(cyclopropylmethoxy)benzyl)-1H-indole-4-carboxylic acid], greater than 75%.

The same assay, now with this note: at 10 μM.
With “2-((1-(5-chloro-2-(cyclopropylmethoxy)benzyl)-1H-indol-4-yl)oxy)acetic acid [Example 86]”, the “Results of Test 2 (Functional assay), % inh” value is given as “$$ (45 < % inh < 75)”.

The target in a further assay is T1, human EP1 receptor. The assay is described as follows: Test 1: Human EP1 receptor radioligand binding assay ([3H]-PGE2, transfected HEK-293 cell membranes). Further details: expressed in transfected cells; host or cells: HEK-293 cell membranes. Conditions: at 10 μM. The protocol: Test 1: Human EP1 Receptor Radioligand Binding Assay
To investigate binding properties of EP1 receptor ligands to human EP1 receptor, transfected HEK-293 cell membranes and [3H]-PGE2 (Perkin Elmer) were used. In 96-well plates the assay was carried out with a total reaction volume of 250 μl, containing 25 μl of membrane suspension (30 μg protein/well), 25 μl of [3H]-PGE2 (10 nM) in either absence or presence of 25 μl of either buffer or PGE2 (10 μM) for total and non-specific binding, respectively. Binding buffer contained 10 mM MES, 1 mM MgCl2 and 1 mM EDTA at pH 6.0. Plates were incubated at 25° C. for 60 minutes. After the incubation period, 200 μl of incubate were transferred to MultiScreen HTS, FB plates (Millipore), filtered and plates were washed 6 times with ice-cold 10 mM MES, 1 mM MgCl2 and 1 mM EDTA at pH 6.0. Filters were dried and counted in a MicroBeta scintillation counter (Perkin-Elmer) using EcoScint liquid scintillation cocktail.
Percentage inhibition was calculated relating compounds activity to the 0% inhibition of the wells incubated with 10 nM [3H]-PGE2 alone (total binding) and 100% inhibition of the wells incubated with 10 nM [3H]-PGE2 plus 10 μM PGE2 (non-specific binding).
On to “1-(5-chloro-2-((2-chloro-5-fluorobenzyl)oxy)benzyl)-1H-indole-4-carboxylic acid [Example 30]”, for which the “Results of Test 1 (Binding assay), % inh” value is “## (45 < % inh < 75)”. The same measure, in the same setting: in the case of `CC(C)(F)COc1ccc(Cl)cc1Cn1ncc2c(C(=O)[O-])ccnc21.[Na+]` [Example 213] it was “# (% inh > 75)”.

The assay is the same for the next values; noted with them: read-out: Results of Test 1 (Binding assay), % inh.
As for `O=C(O)c1cccc2c1ccn2Cc1cc(Cl)ccc1OCc1cc(F)c(F)cc1F` [Example 15, 1-(5-chloro-2-((2,4,5-trifluorobenzyl)oxy)benzyl)-1H-indole-4-carboxylic acid], the inhibition at 10 µM is greater than 75%. Still for that read-out and setting: for `O=C(O)c1cccc2c1ccn2Cc1cc(F)ccc1OCc1cc(F)c(F)cc1F` [Example 16, 1-(5-fluoro-2-((2,4,5-trifluorobenzyl)oxy)benzyl)-1H-indole-4-carboxylic acid] the value was greater than 75%; for `O=C(O)c1cccc2c1ccn2Cc1cc(Br)ccc1OCc1ccc(F)c(F)c1F` [Example 22, 1-(5-bromo-2-((2,3,4-trifluorobenzyl)oxy)benzyl)-1H-indole-4-carboxylic acid], 45 to 75%. On the same count and under the same terms, in the case of `O=C(O)c1cccc2c1ccn2Cc1cc(Br)ccc1OCc1ccc(F)cc1C(F)(F)F` [Example 26, 1-(5-bromo-2-((4-fluoro-2-(trifluoromethyl)benzyl)oxy)benzyl)-1H-indole-4-carboxylic acid] it was greater than 75%. On the same count and under the same terms, in the case of `O=C(O)c1cccc2c1ccn2Cc1cc(Br)ccc1OCc1ccc(F)cc1Cl` [Example 27, 1-(5-bromo-2-((2-chloro-4-fluorobenzyl)oxy)benzyl)-1H-indole-4-carboxylic acid] it was greater than 75%. With `O=C(O)c1cccc2c1ccn2Cc1cc(Cl)ccc1OCc1cc(F)c(F)cc1Cl` [Example 31, 1-(5-chloro-2-((2-chloro-4,5-difluorobenzyl)oxy)benzyl)-1H-indole-4-carboxylic acid], the inhibition at 10 µM lay within 45 to 75%. Same read-out and setting: in the case of `O=C(O)c1cccc2c1ccn2Cc1cc(F)ccc1OCc1cc(F)ccc1F` [Example 32, 1-(2-((2,5-difluorobenzyl)oxy)-5-fluorobenzyl)-1H-indole-4-carboxylic acid] it was 45 to 75%; in that of `O=C(O)c1cccc2c1ccn2Cc1cc(Cl)ccc1OCc1ccccc1` [Example 44, 1-(2-(benzyloxy)-5-chlorobenzyl)-1H-indole-4-carboxylic acid], greater than 75%. Same read-out and setting: for `O=C(O)c1cccc2c1ccn2Cc1cc(C(F)(F)F)ccc1OCc1ccc(Br)cc1F` [Example 50, 1-(2-((4-bromo-2-fluorobenzyl)oxy)-5-(trifluoromethyl)benzyl)-1H-indole-4-carboxylic acid] the value was greater than 75%; for `O=C(O)c1cccc2c1ccn2Cc1cc(F)ccc1OCc1ccc(Br)cc1F` [Example 56, 1-(2-((4-bromo-2-fluorobenzyl)oxy)-5-fluorobenzyl)-1H-indole-4-carboxylic acid], greater than 75%; for `O=C(O)c1cccc2c1ccn2Cc1cc(Cl)ccc1OCc1c(F)cc(Cl)cc1F` [Example 57, 1-(5-chloro-2-((4-chloro-2,6-difluorobenzyl)oxy)benzyl)-1H-indole-4-carboxylic acid], greater than 75%. In the case of `O=C(O)c1ccnc2c1ccn2Cc1cc(Cl)ccc1OCc1ccc(F)cc1F` [Example 91], the inhibition at 10 µM was greater than 75%. With `O=C(O)c1ncnc2c1ccn2Cc1cc(Cl)ccc1OCc1ccc(Cl)cc1F` [Example 98], the inhibition at 10 µM is greater than 75%. For the molecule `COc1ccc(OCc2ccc(F)cc2F)c(Cn2ccc3c(C(=O)O)cccc32)c1` [Example 101, sodium 1-{2-[(2,4-difluorobenzyl)oxy]-5-methoxybenzyl}-1H-indole-4-carboxylate], the inhibition at 10 µM lay within 45 to 75%. Same read-out and setting: for `CCCOc1ccc(F)cc1Cn1ccc2c(C(=O)O)cccc21` [Example 104] the value was 45 to 75%; for `O=C(O)c1cccc2c1ccn2Cc1cc(Cl)ccc1OC1CCCC1` [Example 105], greater than 75%. Still for that read-out and setting: in the case of `CCCOc1ccc(Cl)cc1Cn1ccc2c(C(=O)O)cccc21` [Example 106] it was 45 to 75%; in that of `CC(C)COc1ccc(F)cc1Cn1ccc2c(C(=O)O)cccc21` [Example 108], 45 to 75%; in that of `O=C(O)c1cccc2c1ccn2Cc1cc(Cl)ccc1OCCF` [Example 111], 45 to 75%. The same measure, in the same setting: for `O=C(O)c1cccc2c1ccn2Cc1cc(Cl)ccc1OCC(F)(F)F` [Example 112] the value was greater than 75%; for `O=C(O)c1cccc2c1cnn2Cc1cc(Cl)ccc1OC1CCCC1` [Example 133], greater than 75%; for `CCCOc1ccc(F)cc1Cn1ncc2c(C(=O)O)cccc21` [Example 135], 45 to 75%. Consider `O=C(O)c1ccc(F)c2c1ccn2Cc1ccccc1OCc1ccc(F)cc1F` [Example 140], for which the inhibition at 10 µM lay in the range of 45 to 75%.

For `CC(C)(F)COc1ccc(Cl)cc1Cn1cc(CCO)c2c(C(=O)O)cccc21` [Example 158], the inhibition at 10 µM was greater than 75%. `O=C(O)c1cccc2c1c(CCO)cn2Cc1cc(F)ccc1OCc1ccc(F)cc1F` [Example 159]: the inhibition at 10 µM is greater than 75%. Same read-out and setting: for `CC(C)C(C)Oc1ccc(Cl)cc1CN1CCCc2c(C(=O)O)cccc21` (centres unmarked) [Example 176] the value was 45 to 75%; for `COCCOc1ccc(Cl)cc1CN1CCc2c(C(=O)O)cccc21` [Example 201], 45 to 75%; for `CC(C)(C)COc1ccc(Cl)cc1CN1CCc2c(C(=O)O)cccc21` [Example 203], 45 to 75%.

These data come from patent publication US9518015B2, “EP1 receptor ligands” (LABORATORIOS DEL DR. ESTEVE, S.A., priority 2011, dated 2016).
